Test results reported in the kinase profiling compilation of Christmann-Franck et al. (2016).

Key:
Assay in all cases: radiometric filter-binding kinase assay
[1] = tested on: ROCK2 (rat); settings: accession and sequence are those of the human protein
[2] = tested on: LCK (mouse); settings: accession and sequence are those of the human protein
[3] = target: MARK3 (human) (UniProt P27448)
[4] = target: MARK1 (human) (UniProt Q9P0L2)
[5] = target: PAK4 (human) (UniProt O96013); settings: compound 1.0 µM
[6] = target: ERBB4 (human) (UniProt Q15303)
[7] = target: DYRK3 (human) (UniProt O43781)
[8] = target: DYRK2 (human) (UniProt Q92630)
[9] = target: CSNK2A1 (human) (UniProt P68400)
[10] = target: HIPK3 (human) (UniProt Q9H422)
[11] = target: HIPK2 (human) (UniProt Q9H2X6)
[12] = target: MST4 (human) (UniProt Q9P289)
[13] = target: DYRK1A (human) (UniProt Q13627)
[14] = target: EEF2K (human) (UniProt O00418)
[15] = target: NEK6 (human) (UniProt Q9HC98)
[16] = target: MAP3K9 (human) (UniProt P80192)
[17] = target: DAPK1 (human) (UniProt P53355)
[18] = target: EPHA2 (human) (UniProt P29317)
[19] = target: EPHB3 (human) (UniProt P54753)
[20] = target: MAP2K6 (human) (UniProt P52564)
[21] = tested on: AKT1 (human), P31749 [S473D]
[22] = target: RPS6KA5 KD1 KD2 (human) (UniProt O75582)
[23] = target: PAK6 (human) (UniProt Q9NQU5)
[24] = target: MAPK14 (human) (UniProt Q16539)
[25] = target: PAK7 (human) (UniProt Q9P286)
[26] = target: HIPK1 (human) (UniProt Q86Z02)
[27] = target: EPHB1 (human) (UniProt P54762)
[28] = target: IKBKE (human) (UniProt Q14164)
[29] = target: MAPK13 (human) (UniProt O15264)
[30] = target: MAPK11 (human) (UniProt Q15759)
[31] = target: CaMK1 (human) (UniProt Q14012)
[32] = target: MAPKAPK5 (human) (UniProt Q8IW41)
[33] = target: TAOK1 (human) (UniProt Q7L7X3)
[34] = target: NUAK1 (human) (UniProt O60285)
[35] = target: PRKCZ (human) (UniProt Q05513)

Sequence of MARK3 (human) (P27448 whole entry, looked up): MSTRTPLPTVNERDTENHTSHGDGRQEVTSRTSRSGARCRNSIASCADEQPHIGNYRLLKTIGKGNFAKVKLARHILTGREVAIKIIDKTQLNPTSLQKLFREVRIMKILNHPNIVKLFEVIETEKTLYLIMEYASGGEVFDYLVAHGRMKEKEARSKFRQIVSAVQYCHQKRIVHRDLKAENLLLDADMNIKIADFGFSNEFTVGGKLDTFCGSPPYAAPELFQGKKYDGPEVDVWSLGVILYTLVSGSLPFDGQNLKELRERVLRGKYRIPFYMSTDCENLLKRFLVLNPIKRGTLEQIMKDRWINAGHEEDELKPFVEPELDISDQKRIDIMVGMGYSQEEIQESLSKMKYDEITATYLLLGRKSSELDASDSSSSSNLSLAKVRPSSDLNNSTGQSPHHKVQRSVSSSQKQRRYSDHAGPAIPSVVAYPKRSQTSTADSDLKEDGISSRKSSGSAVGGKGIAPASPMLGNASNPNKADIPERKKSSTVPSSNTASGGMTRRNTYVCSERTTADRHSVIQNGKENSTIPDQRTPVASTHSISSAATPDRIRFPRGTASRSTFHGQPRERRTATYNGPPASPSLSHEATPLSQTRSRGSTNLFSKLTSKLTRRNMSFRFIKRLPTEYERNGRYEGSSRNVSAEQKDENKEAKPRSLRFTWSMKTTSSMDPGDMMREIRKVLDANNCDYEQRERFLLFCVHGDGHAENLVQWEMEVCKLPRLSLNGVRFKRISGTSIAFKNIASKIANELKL
Sequence of MAP2K6 (human) (P52564 whole entry, looked up): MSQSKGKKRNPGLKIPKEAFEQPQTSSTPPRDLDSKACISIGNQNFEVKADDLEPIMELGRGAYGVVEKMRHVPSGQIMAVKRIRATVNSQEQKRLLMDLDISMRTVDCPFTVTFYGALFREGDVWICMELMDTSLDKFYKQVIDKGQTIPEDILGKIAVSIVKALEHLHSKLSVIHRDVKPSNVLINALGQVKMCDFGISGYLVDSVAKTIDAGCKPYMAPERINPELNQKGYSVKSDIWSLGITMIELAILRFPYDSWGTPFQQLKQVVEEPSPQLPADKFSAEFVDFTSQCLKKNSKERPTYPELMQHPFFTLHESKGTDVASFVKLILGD
Sequence of CaMK1 (human) (Q14012 whole entry, looked up): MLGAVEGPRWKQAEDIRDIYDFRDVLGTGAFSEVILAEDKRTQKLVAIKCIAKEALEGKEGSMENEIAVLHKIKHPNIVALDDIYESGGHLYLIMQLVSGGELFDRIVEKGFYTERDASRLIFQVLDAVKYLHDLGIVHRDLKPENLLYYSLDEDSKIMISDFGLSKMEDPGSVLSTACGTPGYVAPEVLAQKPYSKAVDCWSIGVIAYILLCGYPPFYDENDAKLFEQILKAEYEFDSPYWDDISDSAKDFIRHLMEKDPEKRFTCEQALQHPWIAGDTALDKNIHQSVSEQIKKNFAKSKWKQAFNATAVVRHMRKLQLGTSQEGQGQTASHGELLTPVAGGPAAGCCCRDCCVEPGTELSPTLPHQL
Sequence of ERBB4 (human) (Q15303 whole entry, looked up): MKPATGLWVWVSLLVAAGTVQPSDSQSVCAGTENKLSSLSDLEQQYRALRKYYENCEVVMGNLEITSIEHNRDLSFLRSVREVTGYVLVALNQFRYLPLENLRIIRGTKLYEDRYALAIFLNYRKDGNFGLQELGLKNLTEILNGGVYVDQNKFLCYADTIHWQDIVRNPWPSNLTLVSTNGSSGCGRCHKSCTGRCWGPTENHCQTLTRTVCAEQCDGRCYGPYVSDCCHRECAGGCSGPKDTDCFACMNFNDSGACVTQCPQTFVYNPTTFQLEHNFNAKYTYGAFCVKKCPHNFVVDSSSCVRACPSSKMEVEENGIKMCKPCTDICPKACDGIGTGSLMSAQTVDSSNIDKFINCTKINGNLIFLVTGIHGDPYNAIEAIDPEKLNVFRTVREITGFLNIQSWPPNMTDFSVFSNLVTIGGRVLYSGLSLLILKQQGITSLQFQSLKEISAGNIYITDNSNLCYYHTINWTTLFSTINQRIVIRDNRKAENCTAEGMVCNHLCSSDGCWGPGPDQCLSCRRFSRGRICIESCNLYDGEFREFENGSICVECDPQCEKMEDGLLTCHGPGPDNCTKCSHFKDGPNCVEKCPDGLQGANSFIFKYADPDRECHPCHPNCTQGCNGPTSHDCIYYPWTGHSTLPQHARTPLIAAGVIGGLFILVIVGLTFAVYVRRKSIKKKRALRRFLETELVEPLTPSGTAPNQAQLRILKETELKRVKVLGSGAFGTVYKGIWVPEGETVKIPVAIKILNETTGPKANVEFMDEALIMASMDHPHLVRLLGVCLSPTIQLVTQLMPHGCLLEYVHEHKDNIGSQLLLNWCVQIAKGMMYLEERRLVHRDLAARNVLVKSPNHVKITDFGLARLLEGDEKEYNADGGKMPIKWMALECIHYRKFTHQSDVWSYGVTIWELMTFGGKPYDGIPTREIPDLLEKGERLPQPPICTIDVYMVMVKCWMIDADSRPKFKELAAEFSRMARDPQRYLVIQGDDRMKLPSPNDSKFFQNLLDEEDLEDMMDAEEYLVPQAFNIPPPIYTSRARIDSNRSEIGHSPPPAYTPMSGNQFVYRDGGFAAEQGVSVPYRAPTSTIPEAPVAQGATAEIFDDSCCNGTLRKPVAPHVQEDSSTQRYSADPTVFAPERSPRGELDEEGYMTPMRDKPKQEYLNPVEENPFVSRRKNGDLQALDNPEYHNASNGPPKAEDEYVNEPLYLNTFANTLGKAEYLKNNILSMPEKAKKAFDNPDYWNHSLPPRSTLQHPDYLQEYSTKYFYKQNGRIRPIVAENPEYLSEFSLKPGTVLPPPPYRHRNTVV
Sequence of CSNK2A1 (human) (P68400 whole entry, looked up): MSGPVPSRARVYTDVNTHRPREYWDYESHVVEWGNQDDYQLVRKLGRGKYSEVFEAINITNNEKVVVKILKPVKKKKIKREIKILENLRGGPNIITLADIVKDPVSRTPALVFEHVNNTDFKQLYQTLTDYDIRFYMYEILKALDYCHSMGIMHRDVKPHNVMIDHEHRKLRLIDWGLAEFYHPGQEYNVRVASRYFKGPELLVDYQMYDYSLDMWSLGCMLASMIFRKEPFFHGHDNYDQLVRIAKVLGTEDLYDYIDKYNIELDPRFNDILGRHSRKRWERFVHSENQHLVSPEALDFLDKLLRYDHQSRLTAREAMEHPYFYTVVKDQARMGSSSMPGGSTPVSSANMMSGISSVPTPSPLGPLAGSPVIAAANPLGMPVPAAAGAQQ
Sequence of PAK7 (human) (Q9P286 whole entry, looked up): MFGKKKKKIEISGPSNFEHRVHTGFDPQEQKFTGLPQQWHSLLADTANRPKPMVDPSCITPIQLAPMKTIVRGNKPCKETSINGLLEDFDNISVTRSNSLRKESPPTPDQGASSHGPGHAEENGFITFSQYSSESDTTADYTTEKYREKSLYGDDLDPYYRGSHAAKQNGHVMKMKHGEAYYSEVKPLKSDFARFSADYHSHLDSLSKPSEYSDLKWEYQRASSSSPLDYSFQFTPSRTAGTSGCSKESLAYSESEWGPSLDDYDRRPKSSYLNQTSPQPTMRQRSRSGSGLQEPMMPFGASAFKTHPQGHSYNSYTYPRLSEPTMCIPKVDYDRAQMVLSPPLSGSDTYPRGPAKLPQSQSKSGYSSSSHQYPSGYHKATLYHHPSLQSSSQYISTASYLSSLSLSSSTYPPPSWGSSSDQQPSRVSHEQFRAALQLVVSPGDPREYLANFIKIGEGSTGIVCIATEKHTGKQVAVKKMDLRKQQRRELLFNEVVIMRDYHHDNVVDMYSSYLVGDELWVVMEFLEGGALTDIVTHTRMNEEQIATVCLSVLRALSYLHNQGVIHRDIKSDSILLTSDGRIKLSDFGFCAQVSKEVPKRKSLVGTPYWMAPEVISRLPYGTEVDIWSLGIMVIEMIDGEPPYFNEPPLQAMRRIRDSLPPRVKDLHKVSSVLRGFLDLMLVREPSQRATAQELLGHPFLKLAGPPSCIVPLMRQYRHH
Sequence of EPHB3 (human) (P54753 whole entry, looked up): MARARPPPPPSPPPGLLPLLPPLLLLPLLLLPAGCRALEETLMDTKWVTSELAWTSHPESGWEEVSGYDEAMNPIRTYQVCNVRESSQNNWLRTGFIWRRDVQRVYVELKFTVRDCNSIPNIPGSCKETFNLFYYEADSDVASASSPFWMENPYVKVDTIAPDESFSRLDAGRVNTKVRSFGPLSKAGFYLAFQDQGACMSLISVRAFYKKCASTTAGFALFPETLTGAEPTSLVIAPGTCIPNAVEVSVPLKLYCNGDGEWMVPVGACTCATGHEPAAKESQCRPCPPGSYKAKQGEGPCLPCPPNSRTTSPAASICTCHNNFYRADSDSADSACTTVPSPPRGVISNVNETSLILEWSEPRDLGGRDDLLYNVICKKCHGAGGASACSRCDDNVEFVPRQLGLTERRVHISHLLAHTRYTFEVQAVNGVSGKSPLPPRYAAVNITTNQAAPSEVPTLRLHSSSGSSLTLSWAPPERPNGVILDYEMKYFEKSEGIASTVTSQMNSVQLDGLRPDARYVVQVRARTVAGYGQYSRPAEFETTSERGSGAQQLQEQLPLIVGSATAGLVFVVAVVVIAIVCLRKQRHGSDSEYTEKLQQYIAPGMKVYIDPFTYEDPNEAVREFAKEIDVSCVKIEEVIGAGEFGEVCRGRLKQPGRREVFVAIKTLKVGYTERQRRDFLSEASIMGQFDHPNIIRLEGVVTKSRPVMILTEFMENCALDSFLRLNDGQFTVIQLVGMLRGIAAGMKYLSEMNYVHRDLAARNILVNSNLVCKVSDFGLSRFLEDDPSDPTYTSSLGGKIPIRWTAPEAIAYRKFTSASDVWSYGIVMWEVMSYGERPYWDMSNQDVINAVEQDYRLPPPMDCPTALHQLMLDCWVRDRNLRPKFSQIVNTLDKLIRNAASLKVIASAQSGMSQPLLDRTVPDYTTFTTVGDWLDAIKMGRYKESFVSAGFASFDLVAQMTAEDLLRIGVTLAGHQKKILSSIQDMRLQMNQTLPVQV

CC(C)(C#N)c1ccc(N2C(=O)OCc3cnc4ccc(-c5cnc6ccccc6c5)cc4c32)cc1
residual activity ([1]; compound 1.0 µM): 120% | residual activity ([1]; compound 10.0 µM): 104% | residual activity ([2]; compound 1.0 µM): 78% | residual activity ([2]; compound 10.0 µM): 98% | residual activity ([3]; compound 1.0 µM): 93% | residual activity ([3]; compound 10.0 µM): 102% | residual activity ([4]; compound 1.0 µM): 96% | residual activity ([4]; compound 10.0 µM): 114% | residual activity [5]: 94% | residual activity ([6]; compound 1.0 µM): 110% | residual activity ([6]; compound 10.0 µM): 97% | residual activity ([7]; compound 1.0 µM): 57% | residual activity ([7]; compound 10.0 µM): 64% | residual activity ([8]; compound 1.0 µM): 73% | residual activity ([8]; compound 10.0 µM): 85% | residual activity ([9]; compound 1.0 µM): 97% | residual activity ([9]; compound 10.0 µM): 97% | residual activity ([10]; compound 1.0 µM): 96% | residual activity ([10]; compound 10.0 µM): 94% | residual activity ([11]; compound 1.0 µM): 99% | residual activity ([11]; compound 10.0 µM): 114% | residual activity ([12]; compound 1.0 µM): 93% | residual activity ([12]; compound 10.0 µM): 83% | residual activity ([13]; compound 1.0 µM): 89% | residual activity ([13]; compound 10.0 µM): 83% | residual activity ([14]; compound 1.0 µM): 99% | residual activity ([14]; compound 10.0 µM): 109% | residual activity ([15]; compound 1.0 µM): 83% | residual activity ([15]; compound 10.0 µM): 40% | residual activity ([16]; compound 1.0 µM): 91% | residual activity ([16]; compound 10.0 µM): 89% | residual activity ([17]; compound 1.0 µM): 84% | residual activity ([17]; compound 10.0 µM): 88% | residual activity ([18]; compound 1.0 µM): 69% | residual activity ([18]; compound 10.0 µM): 81% | residual activity ([19]; compound 1.0 µM): 116% | residual activity ([19]; compound 10.0 µM): 103% | residual activity ([20]; compound 1.0 µM): 101% | residual activity ([20]; compound 10.0 µM): 92% | residual activity ([21]; compound 1.0 µM): 102% | residual activity ([21]; compound 10.0 µM): 117% | residual activity ([22]; compound 1.0 µM): 74% | residual activity ([22]; compound 10.0 µM): 53% | residual activity ([23]; compound 1.0 µM): 98% | residual activity ([23]; compound 10.0 µM): 110% | residual activity ([24]; compound 1.0 µM): 93% | residual activity ([24]; compound 10.0 µM): 134% | residual activity ([25]; compound 1.0 µM): 99% | residual activity ([25]; compound 10.0 µM): 80% | residual activity ([26]; compound 1.0 µM): 94% | residual activity ([26]; compound 10.0 µM): 97% | residual activity ([27]; compound 1.0 µM): 93% | residual activity ([27]; compound 10.0 µM): 119% | residual activity ([28]; compound 1.0 µM): 111% | residual activity ([28]; compound 10.0 µM): 97% | residual activity ([29]; compound 1.0 µM): 96% | residual activity ([29]; compound 10.0 µM): 95% | residual activity ([30]; compound 1.0 µM): 89% | residual activity ([30]; compound 10.0 µM): 103% | residual activity ([31]; compound 1.0 µM): 73% | residual activity ([32]; compound 1.0 µM): 82% | residual activity ([32]; compound 10.0 µM): 89% | residual activity ([33]; compound 1.0 µM): 91% | residual activity ([33]; compound 10.0 µM): 94% | residual activity ([34]; compound 1.0 µM): 32% | residual activity ([34]; compound 10.0 µM): 16%

Cc1cc(NC(=O)c2cccc(NC(=O)/C=C/CN(C)C)c2)ccc1Nc1nccc(-c2cccnc2)n1
residual activity ([1]; compound 0.1 µM): 86% | residual activity ([1]; compound 1.0 µM): 80% | residual activity ([2]; compound 0.1 µM): 96% | residual activity ([2]; compound 1.0 µM): 92% | residual activity ([3]; compound 0.1 µM): 92% | residual activity ([3]; compound 1.0 µM): 93% | residual activity ([4]; compound 0.1 µM): 114% | residual activity [5]: 78% | residual activity ([6]; compound 0.1 µM): 102% | residual activity ([6]; compound 1.0 µM): 98% | residual activity ([7]; compound 0.1 µM): 94% | residual activity ([7]; compound 1.0 µM): 80% | residual activity ([35]; compound 0.1 µM): 116% | residual activity ([35]; compound 1.0 µM): 89% | residual activity ([8]; compound 0.1 µM): 73% | residual activity ([8]; compound 1.0 µM): 72% | residual activity ([9]; compound 0.1 µM): 93% | residual activity ([9]; compound 1.0 µM): 77% | residual activity ([10]; compound 0.1 µM): 97% | residual activity ([10]; compound 1.0 µM): 90% | residual activity ([11]; compound 0.1 µM): 92% | residual activity ([11]; compound 1.0 µM): 99% | residual activity ([12]; compound 0.1 µM): 96% | residual activity ([12]; compound 1.0 µM): 79% | residual activity ([13]; compound 0.1 µM): 98% | residual activity ([13]; compound 1.0 µM): 84% | residual activity ([14]; compound 0.1 µM): 98% | residual activity ([14]; compound 1.0 µM): 95% | residual activity ([15]; compound 0.1 µM): 95% | residual activity ([15]; compound 1.0 µM): 87% | residual activity ([16]; compound 0.1 µM): 98% | residual activity ([16]; compound 1.0 µM): 88% | residual activity ([17]; compound 0.1 µM): 102% | residual activity ([17]; compound 1.0 µM): 90% | residual activity ([18]; compound 0.1 µM): 118% | residual activity ([18]; compound 1.0 µM): 111% | residual activity ([19]; compound 1.0 µM): 105% | residual activity ([20]; compound 0.1 µM): 100% | residual activity ([20]; compound 1.0 µM): 95% | residual activity ([21]; compound 0.1 µM): 102% | residual activity ([21]; compound 1.0 µM): 98% | residual activity ([22]; compound 0.1 µM): 91% | residual activity ([22]; compound 1.0 µM): 80% | residual activity ([23]; compound 0.1 µM): 110% | residual activity ([23]; compound 1.0 µM): 96% | residual activity ([24]; compound 0.1 µM): 105% | residual activity ([24]; compound 1.0 µM): 110% | residual activity ([25]; compound 0.1 µM): 100% | residual activity ([25]; compound 1.0 µM): 82% | residual activity ([26]; compound 0.1 µM): 103% | residual activity ([26]; compound 1.0 µM): 87% | residual activity ([27]; compound 0.1 µM): 97% | residual activity ([27]; compound 1.0 µM): 95% | residual activity ([28]; compound 0.1 µM): 92% | residual activity ([28]; compound 1.0 µM): 94% | residual activity ([29]; compound 0.1 µM): 96% | residual activity ([29]; compound 1.0 µM): 80% | residual activity ([31]; compound 0.1 µM): 92% | residual activity ([31]; compound 1.0 µM): 86% | residual activity ([32]; compound 0.1 µM): 92% | residual activity ([32]; compound 1.0 µM): 82% | residual activity ([33]; compound 0.1 µM): 124% | residual activity ([33]; compound 1.0 µM): 97% | residual activity ([34]; compound 0.1 µM): 79% | residual activity ([34]; compound 1.0 µM): 49%
